From patent publication US20110262544A1, “OPHTHALMIC ADMINISTRATION OF A COMPOSITION INCLUDING BRIMONIDINE AS A MIST” (PHARMALIGHT INC., priority 2008, published 2011)

Experiments:
[1] = tested on: Glaucoma patients; settings: normal tension glaucoma patients; cited from earlier work
[2] = tested on: albino New Zealand white rabbits; settings: conclusion from retinal blood flow in rabbits
Experimental: Retinal blood flow rate in the major temporal vein in the right eye of albino New Zealand white rabbits is measured at pre-administration baseline, as well as post-administration of Alphagan® P as drops, post-administration of a composition comprising brimonidine and a penetration enhancer as a mist, and post-administration of a composition in accordance with the principles of the present invention comprising brimonidine or a salt thereof and being devoid of a penetration enhancer as a mist. […] In this instrument, the measuring laser beam is locked onto the target blood vessel during eye movements through an eye-tracking feedback and control system. Doppler-shifted laser light scattered from a retinal vessel is analyzed to determine centerline blood velocity.
Venous blood flow, which is known to be directly correlated to arterial blood flow, is measured, since retinal veins have a larger diameter than retinal arteries, facilitating better locking of the measuring laser beams onto the target vessel. […]
The beam from a red 675-nm diode laser is used for velocity measurement, emitted from a fundus camera-like measuring head. The Doppler-shifted light scattered from the flowing blood cells in the target vessel is detected simultaneously in two directions, separated by a fixed angle. […]
Following administration of the composition, the blood flow velocity in the same veins is measured.

| SMILES | maintenance of retinal blood flow homeostasis with changes in posture [1] | efficacy compared between ways of administration or compositions [2] |
| --- | --- | --- |
| Brc1c(NC2=NCCN2)ccc2nccnc12 [brimonidine, 5-Bromo-N-(4,5-dihydro-1H-imidazol-2-yl) quinoxalin-6-amine] | maintained retinal blood flow homeostasis | as effective as administration in the form of eye-drops |
| CC(C)OC(=O)CCC/C=C\C[C@@H]1[C@@H](CC[C@@H](O)CCc2ccccc2)[C@H](O)C[C@@H]1O [latanoprost] | not |  |
